Reference: patent publication US10377729B2, “Bis-furan derivatives as transthyretin (TTR) stabilizers and amyloid inhibitors for the treatment of familial amyloid polyneuropathy (FAP)” (BSIM Therapeutics, S.A., priority 2015, dated 2019)
Where “and” joins values, the source holds several entries; their conditions need not be identical. Identical values can stand only once. Entries after “also recorded” stand apart in the source; their conditions may differ. Like-named read-outs stand apart in the source and are kept apart here.

Experiments:
[1] = target: recombinant human wild-type TTR (WT-TTR) (Homo sapiens (Human), UniProt P02766); conditions: for inhibition of amyloid fibril formation by TTR (in words): compounds at 2×, 1× and 0.5× of WT-TTR (3.6 μM), 72 hours, FIG. 5; for IC50: read-out: IC50 ± S.D. (concentration inhibiting TTR amyloid fibril formation by 50%), WT-TTR 3.6 μM, pH 4.4, 72 hours at 37° C., mean of at least 3 determinations; for IEI (inhibition efficiency index): IEI = (pIC50/MW) × 1000; for ILE (inhibition lipophilic efficiency): ILE = pIC50 − cLogP; for pIC50: negative logarithm of IC50 values
Description: In an embodiment, the TTR aggregation assay was conducted. […] In this assay, a solution of the test compound is added to a solution of TTR, so that the final concentration is 3.6 μM in protein (TTR) and 7.2, 3.6 and 1.8 μM in the test compound. At such concentrations, compounds may exert their activity through binding to one or both TTR binding sites. The pH of the resulting solution is then lowered to 4.4 to promote amyloidogenesis. The process of amyloid fibril formation over time is assessed by turbidity measurements at three different wavelengths, using a spectrophotometer endowed with a microplate reader.
In an embodiment, the extent of fibril formation of each mixture was normalized by comparison to a sample with protein (TTR) in absence of test compounds, which, at the end of 72 hours, represents 100% of amyloid fibril formation. In each experiment, each compound concentration was tested in triplicate. For each compound concentration, the arithmetic mean of the triplicate experiments was calculated, as well as the arithmetic mean of the three measured wavelengths.
In an embodiment, the IC50 determination assay was conducted. […] Ten different compound concentrations were used for each IC50 determination, while the protein concentration was kept constant at 3.6 μM (FIG. 6).
In an embodiment, the compound preparation for amyloid fibril formation assay was conducted as follows: compounds were prepared as 10.8 mM stock solutions in pure DMSO. Several dilutions in DMSO of the stock solution were made to provide secondary stock solutions. The concentrations were chosen depending on the efficacy of the compound in inhibiting the formation of TTR amyloid fibrils.
In an embodiment, the amyloid fibril formation assay used in this disclosure was based on the one presented in reference [46] and adapted to run in a 96-well microplate. For this purpose, 1 μL of different compound secondary stock solutions was added to 50 μL of a 7.2 μM WT-TTR solution in 10 mM sodium phosphate buffer, 100 mM KCl and 1 mM EDTA, pH 7.2, previously dialyzed against the same buffer solution. After 30 minutes of incubation at room temperature, the pH of the mixture was lowered to 4.4 with 49 μL of 200 mM acetate buffer, 100 mM KCl and 1 mM EDTA, pH 4.3. […] The mixtures were incubated at 37° C. for 72 hours.
In an embodiment, the turbidity at 405 nm, 450 nm and 490 nm (or 550, 600 and 650 nm when the compound absorbs at the previous wavelengths) was measured over time using a microplate spectrophotometer (BioTek Instruments, Inc. Winooski, Vt., USA) to evaluate the extent of fibril formation. Immediately before the turbidity measurements, the mixtures were gently shaken for 1 minute for homogenization but to avoid damaging the formed amyloid aggregates and fibrils. The final turbidity for each compound concentration tested in triplicate was calculated as an average of the three wavelengths measured. In addition, control samples containing TTR with no inhibitor and 1% DMSO, as well as inhibitor in absence of TTR, were tested and analyzed.
In an embodiment, the extent of amyloid fibril formation was compared to WT-TTR with no inhibitor, assigned to be 100% amyloid fibril formation (or 0% amyloid inhibition) at the end of the experiment.
IC50 values were determined by monitoring the effect of increasing concentrations of the compounds under test on the inhibition values. Ten different compound concentrations were used for each IC50 assay, along with a fixed WT-TTR concentration (3.6 μM).

[2] = tested on: HepG2 cells (human liver carcinoma cell line); assay: HepG2 cell viability assay (resazurin reduction); format: cell-based; conditions: for toxicity for HepG2 cells (in words): 72 hours, even at high doses, FIG. 10; for ID50: HepG2, 72 hours of incubation
Description: In an embodiment, the toxicity profiling in HepG2 cell lines was evaluated. […] Further toxicology is required if AT09 compounds are to be progressed to subsequent stages of development, not only to discard potential liver damage (or toxicity to other organs/tissues) but also given the long-term nature of treatments required by patients suffering from TTR amyloidoses (such as FAP), associated co-morbidities, or other TTR-related pathologies.
In an embodiment, the HepG2 cell viability assay was conducted as follows:
Adherent human hepatoma cells HepG2 were cultured in DMEM (Dulbecco's Modified Eagle's Medium) with 10% fetal bovine serum (FBS), 100 U/mL penicillin, 100 μg/mL streptomycin, and 1 mM sodium pyruvate. The cells were grown in 75 cm^2 culture flasks at 37° C., in an atmosphere of 5% CO2, and subcultured twice a week using a trypsin-EDTA solution.
Upon 3-4 days of growth and reaching approximately 90-95% confluence, HepG2 cells were plated in 96-well microplates with cell density of 12×10^3 cells/well and in a volume of 100 μL per well.
In this assay, the compounds were dissolved in pure DMSO and subsequently diluted in DMEM (in 9 intermediate compound concentrations). After adhesion of HepG2 cells to the microplates, 100 μL of each solution of intermediate compound concentration was added to each well (in quadruplicate). Positive controls with 10 wells containing only cells were tested; solvent controls resulted from the analyses of the three highest DMSO concentrations tested and were carried out in triplicate.
After addition of the compounds to the cells, the microplates were incubated for approximately 72 hours at 37° C. in an atmosphere of 5% CO2 until the cell viability assay was performed.
The viability of HepG2 cells in the presence of test compounds was assessed by the resazurin reduction assay. A stock solution of 0.01% resazurin in PBS is diluted 1:10 in incomplete RPMI 1640 cell medium (without addition of antibiotics and FBS). After washing the cells with 200 μL PBS containing Ca^2+ and Mg^2+, 200 μL of 0.001% resazurin were added to the wells. Blanks with incomplete RPMI 1640 medium alone were done in triplicate. The microplates were incubated at 37° C. and 5% CO2 for approximately 2-4 hours.
To quantify the reduction of resazurin, microplate absorbance readings were taken at two wavelengths, 540 nm (reduced form) and 630 nm (oxidized form), in a microplate spectrophotometer (BioTek Instruments, Inc.). The percentage of viable cells at each compound concentration was determined using the equation % viable cells=[(ε630 nm×Abs540 nm)−(ε540 nm×Abs630 nm)]/[(ε630 nm×Ctrl540 nm)−(ε540 nm×Ctrl630 nm)]
where ε is the molar extinction coefficient, Abs is the absorbance and Ctrl is the absorbance of the positive control (cells without compound).

[3] = target: TTR V30M in human plasma (Homo sapiens (Human), UniProt P02766, V30M); assay: Ex vivo TTR stability to dissociation assay (IEF, 4 M urea), plasma of heterozygotic V30M carriers; format: biochemical; conditions: plasmas of heterozygotic V30M carriers, 5 samples, IEF densitometry
Description: (§1) In an embodiment, the AT09-B00 compound was further tested ex vivo for its effect on the stability of human plasma TTR, using isoelectric focusing (IEF) under semi-denaturating conditions, i.e. in the presence of 4 M of urea—as described in this disclosure and in references. After plasma incubation with the test and reference compounds, TTR was isolated by PAGE and run on IEF. Bands corresponding to different TTR species were quantified and the tetramer to total protein ratio was determined. Under the experimental conditions used, TTR presented a typical pattern of two main bands, representing monomers (normal and oxidized forms), and several bands of lower isoelectric point (pI) indicating different forms of TTR tetramers.
(§2) In an embodiment, ex vivo TTR stability assays were conducted. Plasma TTR stability to dissociation is assessed by isoelectric focusing (IEF) in semi-denaturing conditions of human plasma samples as described in references. To perform the assay, 30 μL of human plasma are incubated with 5 μL of a 10 mM solution of test compounds and control compounds overnight at 4° C. followed by a 1 hour incubation at room temperature. The samples are then subjected to native PAGE and the gel band containing TTR is excised and applied to an IEF gel. […] The results are expressed as the average ratio of TTR tetramer for over total TTR over 5 repetitions±the standard deviation.

[4] = tested on: TTR in human plasma (versus albumin and thyroxine-binding globulin); assay: Ex vivo thyroxine ([125I]-T4) competition assay in human plasma (native PAGE); conditions: FIG. 9 A; for displacement of T4 from TTR / binding affinity for TTR (increasing order, in words): heterozygotic TTR V30M carriers and normal subjects, B
Description: After electrophoresis, the gels are dried, subjected to phosphor imaging (Typhoon 8600; […], Amersham Biosciences), and analysed using the ImageQuant program version 5.1. The intensity of the protein bands is compared. Two or three bands of different intensity should be visualized in plasma samples.
The results are analyzed by calculation of the TTR/total (TTR+ALB+TBG) ratio for each sample.

[5] = target: WT-TTR (Homo sapiens (Human), UniProt P02766); assay: Isothermal titration calorimetry (ITC) with WT-TTR; conditions: 25° C., pH 7.2, 2% DMSO, model with two ligand-binding sites
Description: In an embodiment, Isothermal titration calorimetry (ITC) experiments were conducted to determine the binding constants of bis-furan compounds to TTR. […] An initial injection of 4 μL of titrant was followed by 28 regular injections of 10 μL until saturation of the titrated solution was reached. The heat associated with each injection was measured throughout time and calculated by integration of the area under the deflection of the measured peak, after baseline correction (i.e. subtraction of blank). Further details about the ITC experiments are provided herein.
The corresponding dissociation constants were calculated according to the equation given herein.
In an embodiment, the isothermal titration calorimetry (ITC) experiments were performed on a Malvern high precision VP-ITC titration calorimetry system (Malvern Instruments, Worcestershire, UK; previously from MicroCal). Compound stock solutions were prepared in pure DMSO. Both compound and WT-TTR dilutions were prepared in 20 mM sodium phosphate buffer, 150 mM sodium chloride and 2% DMSO, at pH 7.2. All solutions were filtered and degassed prior to use.
In an embodiment, in all titrations, the initial injection of 4 μL of titrant to the calorimetric cell was followed by 28 injections at regular intervals of 10 μL each, until saturation of the titrated solution was reached. […] The extent of binding was determined by direct measurement of the heat exchanged with the environment: the heat associated with each injection is proportional to the complex concentration and can be calculated by integrating the area under the deflection of the measured calorimetric signal. Data were analyzed with the Origin 7.0 software package from Malvern. A baseline correction was applied to each experiment by subtraction of data from injections of ligand solution into a buffer blank correlating to the heat of dilution of the ligand solution. For the calculation of the association constant (Ka), data analysis was performed according to a model of binding to a macromolecule with two ligand-binding sites, by non-linear regression. The reported dissociation constant (Kd) is the reciprocal of Ka, according to the equation ΔG=−RTInKa=RTInKd, where ΔG is the Gibbs free energy of binding, R is the gas constant and T is the temperature.

[6] = target: wild type TTR in human plasma (Homo sapiens (Human), UniProt P02766); assay: Ex vivo TTR stability to dissociation assay (IEF, 4 M urea), plasma of normal subjects; format: biochemical; conditions: wild type TTR plasmas, 5 samples, IEF densitometry
Description: as §1, §2

[7] = tested on: familial amyloid polyneuropathy (FAP) patients; conditions: 18-month phase-III clinical trial; cited from earlier work
[8] = tested on: AD/TTR+/− mice; conditions: cited from earlier work

Compound	inhibition of amyloid fibril formation by TTR (in words) [1]	IC50 [1] [nM]	displacement of T4 from TTR / binding affinity for TTR (increasing order, in words) [4]	IEI (inhibition efficiency index) [1]	ILE (inhibition lipophilic efficiency) [1]	pIC50 [1]	also measured
Cc1oc(CSCc2cc(C(=O)O)c(C)o2)cc1C(=O)O [AT09-A00, bis((3-carboxy-2-methyl-furan-5-yl)methyl)sulfane]	lower inhibitory activity than tafamidis and thyroxine	7100					
Cc1c(C(=O)O)coc1/C=C/c1ccc(Cl)o1 [AT09-B00, (E)-5-(2-(5-chlorofuran-2-yl)vinyl)-4-methylfuran-3-carboxylic acid]	approaching the high levels of activity of 2OH—PCB80	2020	iododiflunisal<tafamidis<AT09-B00; also recorded: at least comparable to the current drug	22.6	2.77	5.69	toxicity for HepG2 cells (in words) [2]: relatively low toxicity for HepG2 cells; tetramer to total protein ratio [3]: 0.481; specificity for TTR versus TBG and albumin (in words) ([4]; band intensity): small difference in band intensity for TBG and albumin; Kd ([5]; read-out: Kd1): 3.5 nM; Kd ([5]; read-out: Kd2): 357 nM; tetramer to total protein ratio [6]: 0.961
Oc1c(Cl)cc(-c2cc(Cl)c(O)c(Cl)c2)cc1Cl [Compound 2OH-PCB80, reference compound]		1590		18.0	0.37	5.80	ID50 [2]: 19.4 μg/mL and 60 μM
CNC[C@H](O)[C@@H](O)[C@H](O)[C@H](O)CO.O=C(O)c1ccc2nc(-c3cc(Cl)cc(Cl)c3)oc2c1 [Tafamidis meglumine, N-methyl D-(2,3,4,5,6-pentahydroxy-hexyl)-ammonium; 2-(3,5-dichloro-phenyl)-benzoxazole-6-carboxylate]							FAP patients with improvement of symptoms [7]: approximately 60%
O=C(O)c1ccc2nc(-c3cc(Cl)cc(Cl)c3)oc2c1 [Tafamidis]			iododiflunisal<tafamidis<AT09-B00				ID50 [2]: 76.1 μg/mL and 247 μM; ID50 ([2]; listed as tafamidis): more than 75 μg/mL; FAP patients with improvement of symptoms [7]: approximately 60%
O=C(O)c1cc(-c2ccc(F)cc2F)cc(I)c1O [iododiflunisal, reference compound]			iododiflunisal<tafamidis<AT09-B00				brain Abeta levels and deposition, cognitive function [8]: decreased brain Aβ levels and deposition; also recorded: decreased brain Abeta levels and deposition; tetramer to total protein ratio [3]: 0.445; tetramer to total protein ratio [6]: 0.768
(E)-5-(2-(5-chlorofuran-2-yl)vinyl)-1-methylfuran-3-carboxylic acid [AT09-B06]	stronger inhibition	2490		22.3	2.99	5.60	toxicity for HepG2 cells (in words) [2]: relatively low toxicity for HepG2 cells; Kd ([5]; read-out: Kd1): 3.9 nM; Kd ([5]; read-out: Kd2): 278 nM
